Legend:
Assay type in all cases: biochemical
[1] = target: T1, recombinant human baculovirus-expressed VEGFR1 cytoplasmic domain (Homo sapiens, UniProt P17948); assay: VEGFR1 kinase inhibition assay (ELISA-based, time-resolved fluorescence); settings: 1 uM compound, 30 μM ATP
T1 construct: recombinant human baculovirus-expressed VEGFR1 cytoplasmic domain; host or cells: baculovirus expression system
T1 sequence (P17948 781-1338 limits assumed): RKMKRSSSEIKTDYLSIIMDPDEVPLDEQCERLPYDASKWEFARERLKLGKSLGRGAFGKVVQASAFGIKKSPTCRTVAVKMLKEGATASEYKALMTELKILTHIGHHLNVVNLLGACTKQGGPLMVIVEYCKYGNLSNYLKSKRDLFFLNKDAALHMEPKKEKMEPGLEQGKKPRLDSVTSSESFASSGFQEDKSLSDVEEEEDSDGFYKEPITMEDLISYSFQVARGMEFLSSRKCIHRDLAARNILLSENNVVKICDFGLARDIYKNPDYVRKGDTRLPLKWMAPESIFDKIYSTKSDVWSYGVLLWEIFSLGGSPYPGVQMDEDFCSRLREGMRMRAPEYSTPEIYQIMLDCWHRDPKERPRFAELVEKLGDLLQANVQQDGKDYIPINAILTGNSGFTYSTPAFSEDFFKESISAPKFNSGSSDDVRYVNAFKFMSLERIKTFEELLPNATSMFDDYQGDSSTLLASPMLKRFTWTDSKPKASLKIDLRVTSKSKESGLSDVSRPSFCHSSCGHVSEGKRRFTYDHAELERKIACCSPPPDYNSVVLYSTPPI
Description: Inhibition of Vascular Endothelial Growth Factor Receptor-1 Kinase Activity
The VEGFR1 kinase activity assay utilizes an ELISA-based format in a 96-well FluoroNUNC Maxisorp plate with a time-resolved fluorescence readout. The plate was coated with 100 μl/well of substrate solution (recombinant human PLC-γ/GST) at a concentration of 40 μg/ml in Tris buffered saline (TBS). The VEGFR1 activity was assayed in 100-μl assay micture containing 50 mM HEPES (pH 7.4), 30 μM ATP, 10 mM MnCl2, 0.1% BSA, 2% DMSO, and 300 ng/ml prephosphorylated recombinant human baculovirus-expressed VEGFR1 cytoplasmic domain. Compounds were screened for inhibition of the VEGFR1 kinase activity at a concentration of 1 μM. The kinase reaction was allowed to proceed at 37° C. for 15 minutes. The detection antibody, europium-labeled anti-phosphotyrosine antibody (Wallac #CR04-100), was added at 1:5000 dilution in block buffer (3% BSA in TBST). After a 1-hour incubation at 37° C., 100 μl of enhancement solution (Wallac #1244-105) was added and the plate was gently agitated. After 5 min, the fluorescence of the resulting solution was measured using the BMG Fluostar (Model # 403).

baculoviral GST-MLK2KDLZ = target: T2, baculoviral GST-MLK2KDLZ (Homo sapiens, UniProt Q02779); assay: Mixed Lineage Kinase-2 inhibition assay (Millipore Multiscreen plate, 32P); settings: 1 uM compound, 100 μM ATP
T2 construct: 3 μg/ml of baculoviral GST-MLK2KDLZ; GST (N); host or cells: baculovirus expression system
T2 sequence (Q02779 98-440 limits assumed): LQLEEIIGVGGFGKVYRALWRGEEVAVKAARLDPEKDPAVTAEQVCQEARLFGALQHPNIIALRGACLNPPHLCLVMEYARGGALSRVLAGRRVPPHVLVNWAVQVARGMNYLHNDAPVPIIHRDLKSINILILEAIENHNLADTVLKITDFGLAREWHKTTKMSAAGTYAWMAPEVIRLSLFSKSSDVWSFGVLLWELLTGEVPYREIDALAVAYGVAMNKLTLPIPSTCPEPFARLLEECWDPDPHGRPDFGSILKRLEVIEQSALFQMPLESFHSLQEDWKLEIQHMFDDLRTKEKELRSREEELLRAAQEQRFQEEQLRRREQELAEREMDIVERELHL
Description: Inhibition of Mixed Lineage Kinase-2 Activity
(§1) Assays were performed using the Millipore Multiscreen plate format as described for MLK1. Each 50-μl assay mixture contained 20 mM Hepes, pH 7, 1 mM EGTA, 10 mM MgCl2, 1 mM DTT, 25 mM β-glycerophosphate, 100 μM ATP, 0.25 μCi [γ-^32P]ATP, 0.1% BSA, 500 μg/ml myelin basic protein (UBI #13-104), 2% DMSO, various concentrations of test compound, and 3 μg/ml of baculoviral GST-MLK2KDLZ. Samples were incubated for 15 min. at 37° C. The reaction was stopped by adding ice cold 50% TCA and the proteins were allowed to precipitate for 30 min at 4° C. The plates were then washed with ice cold 25% TCA Supermix scintillation cocktail was added, and the plates were allowed to equilibrate for 1-2 hours prior to counting.

baculoviral GST-MLK3KD = target: T3, baculoviral GST-MLK3KD (Homo sapiens, UniProt Q16584); assay: Mixed Lineage Kinase-3 inhibition assay (Millipore Multiscreen plate, 32P); settings: 1 uM compound, 100 μM ATP
T3 construct: 2 μg/ml of baculoviral GST-MLK3KD; GST (N); host or cells: baculovirus expression system
T3 sequence (Q16584 117-379 limits assumed): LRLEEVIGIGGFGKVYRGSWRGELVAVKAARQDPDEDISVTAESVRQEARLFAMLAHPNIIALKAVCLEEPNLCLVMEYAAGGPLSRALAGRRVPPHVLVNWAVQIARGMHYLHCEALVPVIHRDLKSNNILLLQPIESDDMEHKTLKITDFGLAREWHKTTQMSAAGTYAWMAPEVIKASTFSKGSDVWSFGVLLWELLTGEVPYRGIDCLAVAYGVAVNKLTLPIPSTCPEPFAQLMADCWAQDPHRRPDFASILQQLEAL
Description: Inhibition of Mixed Lineage Kinase-3 Activity
as §1, with “MLK1. Briefly, each” for “MLK1. Each”, “and 2” for “and 3”, “baculoviral GST-MLK3KD.” for “baculoviral GST-MLK2KDLZ.”, “15 min” for “15 min.”, “25% TCA.” for “25% TCA”

[2] = target: T4, recombinant human baculovirus-expressed FGFR1 cytoplasmic domain (Homo sapiens, UniProt P11362); assay: FGFR1 kinase inhibition assay (ELISA-based, time-resolved fluorescence); settings: 1 uM compound; 20 μM ATP
T4 construct: recombinant human baculovirus-expressed FGFR1 cytoplasmic domain; host or cells: baculovirus expression system
T4 sequence (P11362 398-822 limits assumed): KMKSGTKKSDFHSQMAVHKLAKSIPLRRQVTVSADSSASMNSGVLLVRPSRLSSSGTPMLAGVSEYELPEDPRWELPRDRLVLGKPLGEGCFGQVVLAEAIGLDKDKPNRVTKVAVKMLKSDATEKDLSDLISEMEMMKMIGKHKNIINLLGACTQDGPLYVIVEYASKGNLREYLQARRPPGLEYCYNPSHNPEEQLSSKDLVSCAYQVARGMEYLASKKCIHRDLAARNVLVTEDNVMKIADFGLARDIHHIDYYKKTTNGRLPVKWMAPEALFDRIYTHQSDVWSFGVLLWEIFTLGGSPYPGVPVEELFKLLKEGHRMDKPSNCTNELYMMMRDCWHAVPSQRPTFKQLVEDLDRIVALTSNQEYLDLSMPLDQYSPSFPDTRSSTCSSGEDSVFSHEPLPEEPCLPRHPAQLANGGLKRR
Description: Inhibition of Fibroblast Growth Factor Receptor-1 (FGFR1) Kinase Activity
The FGFR1 kinase activity was measured using an ELISA-based format in a 96-well FluoroNUNC Maxisorp plate with a time-resolved fluorescence readout as described for trkA kinase. The plate was coated with 100 μl/well of substrate solution (recombinant human PLC-γ/GST) at a concentration of 10 μg/ml in Tris buffered saline (TBS). The FDGFR1 activity was assayed in 100-μl assay micture containing 50 mM HEPES (pH 7.4), 20 μM ATP, 10 mM MnCl2, 0.1% BSA, 2% DMSO, and 15 ng/ml recombinant human baculovirus-expressed FGFR1 cytoplasmic domain (prephosphorylated prior to use). Compounds were screened for inhibition of the FGFR1 kinase activity at a conentration of 1 μM. The kinase reaction was allowed to proceed at 37° C. for 15 minutes. The detection antibody, europium-labeled anti-phosphotyrosine antibody (Wallace #CR04-100), was added at 1:5000 dilution in block buffer (3% BSA in TBST). After a 1-hour incubation at 37° C., 100 μl of enhancement solution (Wallac #1244-105) and the plate was gently agitated. After 5 min, the fluorescence of the resulting solutions measured using the BMG Fluostar (Model # 403).

| Structure (SMILES) | VEGFR-1 kinase % inhibition @ 1 uM [1] | MLK-2 Kinase % inhibition @ 1 uM (baculoviral GST-MLK2KDLZ) | MLK-3 Kinase % inhibition @ 1 uM (baculoviral GST-MLK3KD) | FGFR1 % inhibition @ 1 uM [2] | inhibition at 1 µM ([1]; read-out: VEGFR-1 kinase % inhibition @ 1 uM) | inhibition at 1 µM (baculoviral GST-MLK2KDLZ; read-out: MLK-2 Kinase % inhibition @ 1 uM) | inhibition at 1 µM (baculoviral GST-MLK3KD; read-out: MLK-3 Kinase % inhibition @ 1 uM) | inhibition at 1 µM [2] |
| --- | --- | --- | --- | --- | --- | --- | --- | --- |
| O=C1NN=C(c2ccoc2)C1=Cc1ccc[nH]1 [Compound 12] | 29% | −7% | 29% | 39% |  |  |  |  |
| Cc1cc(C)c(C=C2C(=O)NN=C2C2c3ccccc3Oc3ccccc32)[nH]1 [Compound 2] | 9% | −10% | −11% | 33% |  |  |  |  |
| Cn1ccc(C2=NNC(=O)C2=Cc2c[nH]c3ccc(F)cc23)c1 [Compound 32] | 48% | −14% | 42% | 4% |  |  |  |  |
| Cn1ccc(C2=NNC(=O)C2=Cc2c[nH]c3ccc(Cl)cc23)c1 [Compound 35] | 10% | −15% | 34% | 29% |  |  |  |  |
| Cc1cc(C)c(C=C2C(=O)NN=C2c2cc(C)oc2C)[nH]1 [Compound 36] | 14% | −18% | 25% | 31% |  |  |  |  |
| Cc1oc(-c2ccc(Cl)cc2)cc1C1=NNC(=O)C1=Cc1c[nH]c2ccccc12 [Compound 42] | 13% | −10% | 21% | 32% |  |  |  |  |
| N#CCCn1cc(C=C2C(=O)NN=C2c2cccs2)c2ccccc21 [Compound 66] | 24% | 5% | 11% | 29% |  |  |  |  |
| Cn1cc(C=C2C(=O)NN=C2c2ccco2)c2ccccc21 [Compound 45] | 46% | −22% | 56% | 8% |  |  |  |  |
| Cc1ccc2c(C=C3C(=O)NN=C3c3ccco3)c[nH]c2c1 [Compound 46] | 41% | 2% | 36% | 25% |  |  |  |  |
| Cc1cc(C)c(C=C2C(=O)NN=C2c2ccccn2)[nH]1 [Compound 30] | 41% | 1% | 46% | 27% |  |  |  |  |
| O=C1NN=C(c2ccco2)C1=Cc1cn(Cc2ccccc2)c2ccccc12 [Compound 69] | 5% | 4% | 9% | 30% |  |  |  |  |
| Cc1nc(C)c(C2=NNC(=O)C2=Cc2c[nH]c3ccccc23)s1 [Compound 13] | 39% | −17% | 17% | 30% |  |  |  |  |
| O=C1NN=C(c2ccco2)C1=Cc1c[nH]c2ccc(F)cc12 [Compound 48] | 54% | 3% | 31% | 43% |  |  |  |  |
| O=C1NN=C(c2ccco2)C1=Cc1c[nH]c2ccc(Cl)cc12 [Compound 49] | 32% | 3% | 21% | 39% |  |  |  |  |
| Cn1cccc1C1=NNC(=O)C1=Cc1c[nH]c2ccc(F)cc12 [Compound 56] | 5% | −14% | −1% | 30% |  |  |  |  |
| Cc1cc(C)c(C=C2C(=O)NN=C2c2cc(-c3ccc(Cl)cc3)oc2C)[nH]1 [Compound 41] | 5% | −15% | 10% | 21% |  |  |  |  |
| O=C1NN=C(c2ccoc2)C1=Cc1c[nH]c2ccccc12 [Compound 9] | 51% | 15% | 27% | 17% |  |  |  |  |
| Cc1cc(C)c(C=C2C(=O)NN=C2c2ccsc2)[nH]1 [Compound 37, 4-[(3,5-dimethylpyrrol-2-yl)methylene]-3-(3-thienyl)-2-pyrazolin-5-one] |  |  |  |  | 14% | 12% | 79% | 32% |
| O=C1NN=C(c2ccoc2)C1=CC=C(c1ccccc1)c1ccccc1 [Compound 4] | 20% | −10% | −6% | 20% |  |  |  |  |
| O=C1NN=C(c2ccco2)C1=Cc1cn(CCOCc2ccccc2)c2ccccc12 [Compound 71] | 12% | 3% | 9% | 26% |  |  |  |  |
| Cc1cc(C)c(C=C2C(=O)NN=C2c2cccnc2)[nH]1 [Compound 10] | 41% | −9% | 44% | 14% |  |  |  |  |
| Cc1cc(C)c(C=C2C(=O)NN=C2c2sc(C)nc2C)[nH]1 [Compound 14] | 8% | −18% | 14% | 22% |  |  |  |  |
| N#CCCn1cc(C=C2C(=O)NN=C2c2ccoc2)c2ccccc21 [Compound 65] | 22% | −3% | 7% | 21% |  |  |  |  |
